Assays:
Type in all cases: cell-based
TNF-α = experiment: LPS induced cytokine release assay, TNF-α by ELISA in PBMCs; conditions: human PBMCs; for TNF-α: 72 h, ELISA (LPS control 18.16); for change of TNF-α expression in LPS-treated cells: tested concentrations of 1 M and 10 M (so in the source)
Text: (§1) This study was aimed to test the effect of 12 compounds (THCA, Ia1, Ia5, Ia6, Ia9, Ia11, Ia15, Ia17, Ia24, Ia25, Ia27, and Ia28) on human peripheral blood mononuclear cells (PBMCs) challenged by lipopolysaccharide (LPS) through monitoring multiple inflammatory endpoints.
(§2) Blood samples were collected from healthy volunteers according to protocols that have been reviewed and approved by the Chempartner Institutional Ethic Committee (IEC) upon signing an Informed Consent Form (ICF).
(§3) Fresh PBMCs were isolated and seeded into 96-well plate, and diluted solutions of the tested compounds and 0.1 μg/mL LPS were then added (in triplicates). To serve as control, 3 wells with PBMCs only, 3 wells with 0.1 μg/mL LPS, and 2 wells with 1 μg/mL dexamethasone (Dex) and 0.1 μg/mL LPS were included. After 72 hours incubation, supernatant was collected for tumor necrosis factor-α (TNF-α) measurement by enzyme-linked immunosorbent assay (ELISA), and cell pellets were harvested for cell proliferation measurement by CellTiter-Glo® Luminescent Cell Viability Assay (CTG).
(§4) The human blood sample from an individual donor was diluted by the same volume of sterile phosphate buffered solution (PBS) and mixed sufficiently by gentle shake. 15 mL Lymphoprep™ medium was transferred into a new 50 mL centrifuge tube, and the diluted blood sample (30 mL) was then carefully added onto the surface of the medium, which consequently contained Ficoll 400 and blood in a volume ratio of 1:2. Four interfaces were observed after centrifugation, which are, from top to bottom, layers of plasma, mononuclear cells, Ficoll medium, and red blood cells (RBCs). Plasma was absorbed, and mononuclear cells were then transferred into another new sterile centrifuge tube. Then, sterile PBS buffer was added into the collected PBMCs for washing, at a volume ratio of 3:1. PBMCs were washed with 5-10 mL PBS twice before cell counting with cytometer. Cells were centrifuged at 350×g, for 10 min, at 20° C. with the acceleration (5) and deceleration (5) settings during the centrifugation. The cells were resuspended with RPMI 1640 complete medium (containing 10% FBS) for assay, and the density was adjusted with RPMI 1640 complete medium to the final concentration of 2E6 cells/mL. Cells suspension of the PBMCs (100 μL/well) were seeded into 96-well plate (#3903).
(§5) Diluted solutions of the tested compounds were prepared with RPMI 1640 complete medium according to the following layout. Compounds were prepared at 5-fold of concentration (50 μM), and then were diluted to the working concentration of 10 μM with RPMI 1640 complete medium and made 10-fold serially dilution (2 points). The diluted compounds (50 μL/well) were added to the indicated wells, and the plate was incubated at 37° C., 5% CO2, for 72 h.
(§6) LPS (0.1 μg/mL, 100 μL) was added into each well. Dex (1 μg/mL) was included as a positive control. Plate was incubated at 37° C., 5% CO2 for 72 h. Supernatant was collected to measure TNF-α by ELISA. Cell proliferation was detected by CTG.

U251, brain human glioma = experiment: CellTiter-Glo cell viability assay, cancer cell cytotoxicity/anti-proliferation panel (Chempartner); conditions: for IC50: Homo sapiens, U-251, 72 h, read-out: IC50 (absolute IC50); for Inhibition: U251, 72 hours, compounds 10 μM starting, STS 2 μM starting, 10-pt, 3-fold dilution
[1] = test system: PANC-1 (pancreatic carcinoma); experiment: XTT cytotoxicity assay (Pharma Seed); conditions: Homo sapiens, 48 hours, 20, 10, 5, 1 μM, assay medium 1% FBS
Description: (§7) In this study, the cytotoxicity of several compounds of the present invention on lung and pancreatic cancer cell was evaluated.
PANC-1 (pancreatic carcinoma) culture medium: DMEM (High Glucose), supplemented with 10% FBS (heat inactivated), 2 mM L-glutamine, and 1% of Pen/Strep/Amp solution. PANC-1 assay medium: DMEM (High Glucose), supplemented with 1% FBS (heat inactivated), 2 mM L-glutamine, and 1% of Pen/Strep/Amp solution.
(§8) Each of the tested compounds was dissolved in DMSO to reach a stock concentration of 20 mM (and stored at −15° C.-−25° C. until use. Compound Ia28 (MW 484 g/mol, 3.05 mg total) was dissolved in 0.315 mL; compound Ia9 (MW 484 g/mol, 2.33 mg total) was dissolved in 0.241 mL; and compound Ia6 (MW 428.3 g/mol, 2.25 mg total) was dissolved in 0.262 mL.
(§9) On the day of incubation with the cells, each compound was diluted in DMSO to reach 2 mM, 1 mM, 0.5 mM, 0.1 mM stock concentrations (1:10, 1:20, 1:40 and 1:200), and each of these stocks was further diluted in assay medium 1:100 for final concentration of 20 μM, 10 μM, 5 μM, and 1 μM.
(§10) Part 1—cell number calibration. PANC-1 and A549 cells were each plated in a 96 well plate, in their culture medium, at various cell concentrations per well, in triplicates, and were allowed to attach for 24 hours. Thereafter, culture medium was discarded, assay medium was added, and the cells were incubated for additional 72 hours. Finally, assay medium was discarded, and fresh culture medium was added to the cells along with 50 μl XTT reagent. The OD was measured every two hours for 6 hours (three times).
(§11) The highest cells number/well were chosen for part 2 as follows: PANC-1 at 7,500 cells per well, A549 at 5000 cells per well.
Part 2—cells incubation with tested compounds. PANC-1 and A549 cells were plated in a 96 well plate, in their culture medium, at the optimal cell concentration according to the results from the previous section and were allowed to attach for 24 hours. Thereafter, the culture medium was discarded, and fresh assay medium was added to the cells, supplemented with elevating compound concentrations. Triton 0.1% was used as positive control for cell death. The cells were incubated for another 48 hours (TBD upon microscopic observation). Finally, fresh culture medium was added to the cells along with 50 μl XTT reagent. The OD was measured at the optimal time point according to the results in the previous section.

[2] = test system: human peripheral blood mononuclear cells (PBMCs); experiment: Cell proliferation of LPS-challenged PBMCs by CellTiter-Glo (CTG); conditions: for effect on cell proliferation: LPS-treated human PBMCs, CTG; for CTG signal: human PBMCs, 72 h (LPS control 84.50)
Text: as §1, §2, §3, §4, §5, §6

A549 (lung carcinoma) = experiment: XTT cytotoxicity assay (Pharma Seed); conditions: Homo sapiens, 48 hours, 20, 10, 5, 1 μM, assay medium 1% FBS
Description: as §7
A549 (lung carcinoma) culture medium: F12-K, supplemented with 10% FBS (heat inactivated), 2 mM L-glutamine, and 1% of Pen/Strep/Amp solution. A549 assay medium: F12-K, supplemented with 1% FBS (heat inactivated), 2 mM L-glutamine, and 1% of Pen/Strep/Amp solution.
as §8, §9, §10, §11
Part 2—cells incubation with tested compounds. PANC-1 and A549 cells were plated in a 96 well plate, in their culture medium, at the optimal cell concentration according to the results from the previous section and were allowed to attach for 24 hours. […] The OD was measured at the optimal time point according to the results in the previous section.

SMILES | TNF-α (TNF-α; compound 1 μM + 0.1 μg/mL LPS) | TNF-α (TNF-α; compound 10 μM + 0.1 μg/mL LPS) | change of TNF-α expression in LPS-treated cells (TNF-α) | IC50 (U251, brain human glioma) | Inhibition (U251, brain human glioma) | IC50 [1] | effect on cell proliferation [2] | CTG signal ([2]; compound 1 μM + 0.1 μg/mL LPS) | CTG signal ([2]; compound 10 μM + 0.1 μg/mL LPS) | IC50 (A549 (lung carcinoma))
CCCCCc1cc2c(c(O)c1C(=O)NCCN(C)C)[C@@H]1C=C(C)CC[C@H]1C(C)(C)O2 [Ia6, (6aR,0aR)—N-(2-(dimethylamino)ethyl)-1-hydroxy-6,6,9-trimethyl-3-pentyl-6a,7,8,10a-tetrahydro-6H-benzo[c]chromene-2-carboxamide] | 17.09 pg/mL | 49.73 pg/mL | increased TNF-α expression | 7.23 µM | 70.02% | 9.4 µM | inhibition of cell proliferation | 80.67 10^4 | 37.67 10^4 | 5.2 µM
CCCCCc1cc2c(c(O)c1C(=O)NCCCN1CCOCC1)[C@@H]1C=C(C)CC[C@H]1C(C)(C)O2 [Ia9, (6aR,0aR)-1-hydroxy-6,6,9-trimethyl-N-(3-morpholinopropyl)-3-pentyl-6a,7,8,10a-tetrahydro-6H-benzo[c]chromene-2-carboxamide] | 20.26 pg/mL | 45.82 pg/mL | increased TNF-α expression | 8.91 µM | 68.11% | 11.4 µM | inhibition of cell proliferation | 77.55 10^4 | 23.31 10^4 | 7.8 µM
C=C(C)[C@@H]1CCC(C)=C[C@H]1c1c(O)cc(CCCCC)c(C(=O)NCCCN2CCOCC2)c1O [Ia28, (1′R,2′R)-2,6-dihydroxy-5′-methyl-N-(3-morpholinopropyl)-4-pentyl-2′-(prop-1-en-2-yl)-1′,2′,3′,4′-tetrahydro-[1,1′-biphenyl]-3-carboxamide] | 41.38 pg/mL | 22.35 pg/mL | decreased TNF-α expression | – | – | 19 µM | – | 76.24 10^4 | 72.61 10^4 | 11 µM
CCCCCc1cc2c(c(O)c1C(=O)O)[C@@H]1C=C(C)CC[C@H]1C(C)(C)O2 [THCA, tetrahydrocannabinolic acid, reference compound] | 21.04 pg/mL | 27.57 pg/mL | increased TNF-α expression | > 10 µM | 17.22% | – | – | 74.89 10^4 | 75.54 10^4 | –

Reference: patent US20210087159A1, “TETRAHYDROCANNABINOLIC- CA[…] DERIVATIVES AND USES THEREOF” (AL&AM […]., priority 2018, published 2021)
